Experimental data taken from ChEMBL document CHEMBL1201862, “PubChem BioAssay data set” (2004).
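Results reflect a 48-hour exposure of cells in 96-well plates to compound at five concentrations. The concentration for 50% growth inhibition is given as GI50.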 Calls of active or inactive are those of the source. Rule as the data show it: active = GI50 up to about 1.1 µM and inactive = higher.

Experiments:
Assay in all cases: inhibition of tumour cell growth, NCI panel, 48 h
[1] = tested on: BT-549
[2] = tested on: Hs-578T
[3] = tested on: T47D
[4] = tested on: DU-145
[5] = tested on: MDA-MB-435
[6] = tested on: LXFL 529
[7] = tested on: SR

Measured: GI50

CCOC(=O)Cn1c(=O)c(C)cn(COCCO)c1=O
inactive: [1] > 100 µM | [2] > 100 µM | [3] > 100 µM | [4] > 100 µM | [5] > 100 µM

Cc1cccc2ns[s+]c12
inactive: [6] 37.8 µM

CCCCS(=N)(=O)CC[C@H](N)C(=O)O (some centres not stated) [BUTHIONINE SULFOXIME]
inactive: [1] > 5000 µM | [7] 286 µM | [2] > 2810 µM | [3] > 5000 µM | [4] > 5000 µM | [5] > 5000 µM
